According to US8329683B2 (Nexgenix Pharmaceuticals, LLC, priority 2006, dated 2012):
Like-named read-outs stand apart in the source and are kept apart here.

Key:
[1] = toluene
[2] = rcm bond, 14-membered ring, Grubbs II (10 mol%), toluene, 2.0 mM, 80.0 °C
[3] = cited from earlier work
HSP90 = HSP90 affinity in a competition assay with geldanamycin; format: binding
[4] = system: NF1- and NF2-deficient human and mouse cells; assay: Cell proliferation assay (ATPlite); format: cell-based; settings: 3 days culture; IC50 values only in FIG. 3
Protocol: Inhibitors of HSP90 function is assayed for the ability to decrease the number of NF2 deficient tumor cells in a tumor, i.e., shrink a tumor, or reduce the proliferation of NF2 deficient tumor cells. The ability of inhibitors to decrease the number of NF2 deficient tumor cells in a sample or reduce proliferation of NF2 deficient tumor cells is assessed using a variety of methods known in the art. A small library of compounds of the present invention (total 14 oxime compounds) were assayed for inhibition of proliferation of NF1- and NF2-deficient cells. Cells used are Nf2−/− mouse embryonic stem cell (MESC), NF2-deficient human SF1335 meningioma cells, NF2-deficient HEI193 schwanoma cells, NF2-deficient BAR and RAV mesothelioma cells, NF2-plus BLA mesothelioma cells, and NF1-deficient human malignant peripheral nerve sheath tumor (MPNST) cells. Appropriate number of cells that can reach ˜70% confluence in 3 days (2000-6000 cells/well) were plated in 96-well plates. Various concentrations of each compound were added to the growing media and the cells were then cultured for 3 days. A positive control compound (17-AAG) and a vehicle (DMSO) control were included with each assay. […] Viable cells were measured by detecting luminescence generated from reaction of ATPlite solution and the ATP in the cells.

EGFR = assay: Immunoblot of client protein degradation in ST88-14 MPNST cells; format: cell-based, human; settings: ST88-14 cells, 24 hr treatment, 8-1000 nM; read-out: IC50 of induced degradation of EGFR
Protocol: (§1) Ras-Raf-Mek-Erk1/2 pathway is activated due to the loss of NF1 in these cells. In addition, EGFR is overexpressed in a number of NF1-deficient human and mouse cells. Human malignant peripheral nerve sheath tumor (MPNST) cell ST88-14 was treated with increasing concentration (8-1000 nM) of NXD30001 for 24 hr. Cells were lysed and clarified lysates were subjected SDS-PAGE, followed by immunoblot analysis using indicated antibodies. […] Equal lysate protein loading is shown by actin immunoblot.

Cdk4 = assay: as above; format: cell-based, human; settings: ST88-14 cells, 24 hr treatment, 8-1000 nM; read-out: IC50 of induced degradation of Cdk4
Protocol: as §1

c-Raf [5] = assay: as above; format: cell-based, human; settings: ST88-14 cells, 24 hr treatment, 8-1000 nM; read-out: IC50 of induced degradation of c-Raf
Protocol: as §1

Akt = assay: as above; format: cell-based, human; settings: ST88-14 cells, 24 hr treatment, 8-1000 nM; read-out: IC50 of induced degradation of Akt
Protocol: as §1

phospho-Akt = assay: Western blot of phospho-Akt in Nf2-/- mouse Schwann cells; format: cell-based; settings: 0.02 μM, 0.5 μM, 24 hours, dose- and time-dependent
From the text: (§2) It has been shown that inhibition of HSP90 function in breast cancer cells causes down-regulation of Akt (Basso et al., 2002, J. Biol. Chem. 277(42): 39858-39866). The inventors of the present invention have determined that phospho-Akt levels are elevated in Nf1−/− mouse Schwann cells, NF2 defient human schwannomas, NF2-deficient meningioma xenografts, NF2-deficient mesothelioma xenografts as compared to wild-type mouse Schwann cells and/or normal human peripheral nerves (reference is made to PCT/US2007/70366 application entitled “Treatment of Neurofibromatosis with Inhibitors of a Signal Transduction Pathway,” filed on Jun. 4, 2007, which is herein incorporated by reference in its entirety). To assess the effect of HSP90 inhibitors on phospho-Akt in NF2 deficient cells, Western blots were prepared from Nf2−/− mouse Schwann cells as an example. The cells were treated with 0.02 μM, 0.5 μM NXD30001 for 24 hours. As control the same cells were treated with vehicle DMSO for 24 hours. […] The loss of phospho-Akt was both dose- and time-dependent.

c-Raf [6] = assay: Western blot of c-Raf in NF2-deficient cells; format: cell-based, mouse and human; settings: NF2-deficient cells (Nf2-/- mouse Schwann, meningioma, mesothelioma); dose- and time-dependent
From the text: (§3) It has been shown that inhibition of HSP90 function in breast cancer cells causes down-regulation of Akt (Basso et al., 2002, J. Biol. Chem. 277(42): 39858-39866). The inventors of the present invention have determined that phospho-Akt levels are elevated in Nf1−/− mouse Schwann cells, NF2 defient human schwannomas, NF2-deficient meningioma xenografts, NF2-deficient mesothelioma xenografts as compared to wild-type mouse Schwann cells and/or normal human peripheral nerves (reference is made to PCT/US2007/70366 application entitled “Treatment of Neurofibromatosis with Inhibitors of a Signal Transduction Pathway,” filed on Jun. 4, 2007, which is herein incorporated by reference in its entirety). To assess the effect of HSP90 inhibitors on phospho-Akt in NF2 deficient cells, Western blots were prepared from Nf2−/− mouse Schwann cells as an example. The cells were treated with 0.02 μM, 0.5 μM NXD30001 for 24 hours. […]
(§4) To assess the effect of the compounds of the present invention on ErbB2 and c-Raf in NF2-deficient cells, Western blots were prepared from various NF2-deficient cells, including Nf2−/− mouse Schwann cells, NF2-deficient meningioma cells, and NF2-deficient mesothelioma cells. […] The inventors of the present invention have determined that treatment of NF2-deficient cells with NXD30001 caused a decline of both ErbB2 and c-Raf levels (FIG. 1A). […]

HSP70 = assay: Western blot of HSP70 in NF2-deficient cells; format: cell-based, mouse and human; settings: dose-dependent
From the text: as §2
To assess the effect of the compounds of the present invention on HSP70 in NF2-deficient cells, Western blots were prepared from various NF2-deficient cells, including […], NF2-deficient schwannoma cells, NF2-deficient meningioma cells, and NF2-deficient mesothelioma cells. […]

ErbB2 = assay: Western blot of ErbB2 in NF2-deficient cells; format: cell-based, mouse and human; settings: NF2-deficient cells (Nf2-/- mouse Schwann, meningioma, mesothelioma); dose- and time-dependent
From the text: as §3, §4

CCOCOc1cc2c(c(OCOCC)c1)C(=O)O[C@H](C)CC=CCCC=CC(=O)C2
ring closure, yield of all isomers ([1]; from C=CCCC=CC(=O)Cc1cc(OCOCC)cc(OCOCC)c1C(=O)O[C@H](C)CC=C, rcm bond, Grubbs II, 2.0 mM, 80.0 °C, 2 steps): 40%

CCOCOc1cc(OCOCC)c2c(c1Cl)CC(=O)C=CCCC=CCC(C)OC2=O (stereo not shown)
ring closure, isolated yield [2]: 94%

C[C@@H]1CC=CCC/C=C/C(=O)Cc2c(Cl)c(O[Si](C)(C)C(C)(C)C)cc(O[Si](C)(C)C(C)(C)C)c2C(=O)O1
ring closure, yield of all isomers ([1]; from C=CCC/C=C/C(=O)Cc1c(Cl)c(O[Si](C)(C)C(C)(C)C)cc(O[Si](C)(C)C(C)(C)C)c1C(=O)O[C@H](C)CC=C, rcm bond, Grubbs II, 2.0 mM, 80.0 °C, 12.0 h): 87%

CCOCOc1cc(OCOCC)c2c(c1Cl)CC(=O)C=CCCC=CC[C@@H](C)OC2=O
ring closure, yield of all isomers ([1]; from C=CCCC=CC(=O)Cc1c(Cl)c(OCOCC)cc(OCOCC)c1C(=O)O[C@H](C)CC=C, rcm bond, Grubbs II, 2.0 mM, 80.0 °C): 94%

C[C@@H]1CC=CCC/C=C/C(=O)Cc2c(Cl)c(OCOCC[Si](C)(C)C)cc(OCOCC[Si](C)(C)C)c2C(=O)O1
ring closure, yield of all isomers ([1]; from C=CCC/C=C/C(=O)Cc1c(Cl)c(OCOCC[Si](C)(C)C)cc(OCOCC[Si](C)(C)C)c1C(=O)O[C@H](C)CC=C, rcm bond, Grubbs II, 2.0 mM, 80.0 °C, 12.0 h): 87%

C[C@@H]1C[C@H]2O[C@@H]2/C=C\C=C\C(=O)Cc2c(Cl)c(O)cc(O)c2C(=O)O1 [radicicol, Radicicol, reference compound]
in vivo anti-tumor activity [3]: no in vivo anti-tumor activity

C[C@@H]1C/C=C/CC/C=C/C(=O)Cc2c(Cl)c(O)cc(O)c2C(=O)O1 [pochonin D]
IC50 (HSP90): 80 nM

C[C@@H]1CC2O[C@@H]2CC/C=C/C(=O)Cc2c(Cl)c(O)cc(O)c2C(=O)O1 (stereo partly shown) [pochonin A]
IC50 (HSP90): 90 nM

O=C1OCC/C=C/CC/C=C/C(=N/OCC(=O)N2CCCCC2)Cc2c(Cl)c(O)cc(O)c21 [NXD30001]
inhibition of cell proliferation [4]: Inhibit Proliferation
IC50 (EGFR): ~100 nM
IC50 (Cdk4): ~100 nM
IC50 (c-Raf [5]): ~100 nM
IC50 (Akt): ~100 nM
phospho-Akt levels (phospho-Akt): decline of phospho-Akt levels
c-Raf levels (c-Raf [6]): decline
HSP70 protein level (HSP70): upregulation of HSP70
ErbB2 levels (ErbB2): decline

CCOCOc1cc2c(c(OCOCC)c1)C(=O)OC(C)CC=CCCC=CC(=O)C2 (stereo not shown)
ring closure, isolated yield ([2]; 2 steps): 40%

CCOCOc1cc(OCOCC)c2c(c1Cl)CC(=NOCC(=O)N1CCCCC1)C=CCCC=CCCOC2=O
ring closure, yield of all isomers ([1]; from CCOCOc1cc(OCOCC)c(C(=O)O)c(CC(C=CCCC=CCCO)=NOCC(=O)N2CCCCC2)c1Cl, ester bond, PPh3/DIAD, 30.9 mM, 23.0 °C, 5.0 h): 60%
